Laboratory results reported in US20170172994A1, “COMPOSITIONS AND METHODS FOR TREATING BACTERIAL INFECTIONS” (WOCKHARDT LIMITED, priority 2013, published 2017).
Where two headings read alike, the source gives them in different places.

How the values were obtained:
Pseudomonas PBP 1A = target: T1, Pseudomonas PBP 1A (Pseudomonas aeruginosa, UniProt Q07806); assay: PBP binding assay (Bocillin FL competition); settings: Pseudomonas PBP 1A; read-out: IC50 (converted)
T1 construct: endogenous in cells
Description: (§1) The phrase “selective and high affinity PBP binder” refers to a PBP binder which binds to only one PBP with very high affinity. In general, the term “selective and high affinity PBP binder” also includes those binders where a substantial fraction of binder selectively binds to only one PBP with high affinity. […]. The term “IC50 value” of a compound refers to the concentration of the compound that reduces the binding of Bocillin-FL to PBPs by 50% as compared to when no compound was added to the reaction.
(§2) A compound of Formula (III) was prepared using the procedure disclosed in PCT International Application No. PCT/IB2012/054290 and was evaluated for its PBP binding affinity profile. […] The reaction mixtures were then denatured with 20 μl each of SDS-denaturing solution at 100° C. for 3 min PBPs were separated through 10% SDS polyacrylamide gel electrophoresis (Bio-Rad Laboratories, Hercules, Calif.). The protein gels were rinsed in water immediately after electrophoresis. […] […].

Pseudomonas PBP 5/6 = Pseudomonas PBP 5/6 (Pseudomonas aeruginosa, UniProt G3XD74); assay: PBP binding assay (Bocillin FL competition); settings: read-out: IC50
Description: as §1, §2

K pneumoniae J 105 = assay: MIC determination (agar dilution, CLSI); format: cell-based; settings: K pneumoniae J 105 (TEM1, SHV2, CTX-M, OMP); standalone
Description: (§3) In a typical procedure for determining MIC values, overnight grown bacterial cultures were diluted appropriately and inoculated on the agar media containing doubling concentrations of the test compounds. Observation for growth or no growth was performed after 16-20 hours of incubation at 35±2° C. in ambient air. The overall procedure was performed as per Clinical and Laboratory Standards Institute (CLSI) recommendations (Clinical and Laboratory Standards Institute (CLSI), Performance Standards for Antimicrobial Susceptibility Testing, 20th Informational Supplement, M 100-S20, Volume 30, No. 1, 2010).

K pneumoniae J 102 = assay: MIC determination (agar dilution, CLSI); format: cell-based; settings: K pneumoniae J 102 (TEM1, SHV5, OMP); standalone
Description: as §3

K pneumoniae J 104 = assay: MIC determination (agar dilution, CLSI); format: cell-based; settings: K pneumoniae J 104 (TEM1, SHV11, CTX-M, OMP); standalone
Description: as §3

K pneumoniae J 101 = assay: MIC determination (agar dilution, CLSI); format: cell-based; settings: K pneumoniae J 101 (TEM1, SHV12, OMP); standalone
Description: as §3

P. mirabilis G 186 = assay: MIC determination; format: cell-based; settings: Proteus mirabilis, G186; P. mirabilis G 186 (NDM, TEM)
Description: as §3

K. pneumoniae B88 [1] = assay: MIC determination; format: cell-based; settings: Klebsiella pneumoniae; K. pneumoniae B88 (NDM, SHV, TEM)
Description: as §3

K. pneumoniae B88 [2] = assay: Minimum filamentation / spheroplasting concentration; settings: K. pneumoniae B88 (NDM, SHV, TEM); minimum spheroplasting concentration
Description: The term “MSC” as used herein refers to minimum spheroplasting concentration, which is the minimum concentration of an antibacterial agent at which about 80% of bacterial cells covert into spheroplasts.
The term “MFC” as used herein refers to minimum filamentation concentration, which is the minimum concentration of an antibacterial agent at which about 80% of bacterial cells get elongated to form filament like structures.

[3] = system: MDR Klebsiella pneumoniae B 88 producing NDM, SHV & TEM beta-lactamases; assay: Time kill study at MFC and MSC; format: cell-based; settings: for Bacterial count: Cefepime 8 mcg/ml (MFC), Compound of Formula (III) 0.12 mcg/ml (MSC), Imepenem 8 mcg/ml
Description: (§4) The synergistic killing effect of the combinations according to invention was studied by performing time kill studies. In a typical time kill study, the freshly grown cultures were diluted to the required cell density (initial starting inoculum) in Cation adjusted Muller Hinton broth medium (BD, USA). The antibacterial agents (either alone or in combination) at the required concentrations were added into the culture-containing medium. The samples were incubated under shaking condition (120 rpm) at 37° C. Enumeration of viable bacterial count was done every 2 hour by diluting in normal saline and plating on to the Tryptic Soya Agar plates (BD, USA). The plates were incubated for 24 hours to arrive at the viable bacterial count. The results are expressed in terms of Log CFU per ml. In general, the decrease of 1 Log CFU/ml, corresponds to 90% killing of bacteria. Similarly, 2 Log CFU/ml reductions indicates to 99% killing of bacteria and 3 Log CFU/ml reductions is equal to 99.9% killing of bacteria.

[4] = system: MDR P. mirabilis G 186 producing NDM & TEM β-lactamases; assay: Time kill study at MFC and MSC; format: cell-based; settings: for Bacterial count: Cefepime 8 mcg/ml (MFC), Compound of Formula (III) 0.25 mcg/ml (MSC), Imepenem 8 mcg/ml
Description: as §4

[5] = system: K. pneumonia S48 expressing multiple ESBLs including MBL (NDM4) and Class A (CTX-M, SHV, TEM); format: cell-based, K. pneumoniae; settings: Cefepime 8 μg/ml, Compound of Formula (III) 2 μg/ml, Clavulanic acid 2 μg/ml, Mecillinam 2 μg/ml, Imipenem 8 μg/ml
Description: Log phase cultures were diluted to desired inoculums in flasks with MHB, containing various drug concentrations. Flasks were incubated at 35° C. in orbital shaker with rotational speed of 125 rpm. […] Plates were incubated for 24 hours at 35° C. and colonies were enumerated to determine the colony forming units (CFU) per ml volume.

Sequence of Pseudomonas PBP 5/6 (G3XD74 entry or part of it): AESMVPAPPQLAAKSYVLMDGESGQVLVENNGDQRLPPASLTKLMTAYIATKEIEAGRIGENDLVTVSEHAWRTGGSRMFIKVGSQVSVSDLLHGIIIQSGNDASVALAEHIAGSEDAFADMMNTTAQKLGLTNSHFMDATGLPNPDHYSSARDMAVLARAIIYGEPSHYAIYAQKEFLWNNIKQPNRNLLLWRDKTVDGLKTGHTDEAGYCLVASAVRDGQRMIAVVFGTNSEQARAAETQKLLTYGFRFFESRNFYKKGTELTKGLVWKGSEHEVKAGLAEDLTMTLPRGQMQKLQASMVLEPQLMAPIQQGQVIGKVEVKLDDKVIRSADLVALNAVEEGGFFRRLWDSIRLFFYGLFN
T1 sequence (Q07806 whole entry): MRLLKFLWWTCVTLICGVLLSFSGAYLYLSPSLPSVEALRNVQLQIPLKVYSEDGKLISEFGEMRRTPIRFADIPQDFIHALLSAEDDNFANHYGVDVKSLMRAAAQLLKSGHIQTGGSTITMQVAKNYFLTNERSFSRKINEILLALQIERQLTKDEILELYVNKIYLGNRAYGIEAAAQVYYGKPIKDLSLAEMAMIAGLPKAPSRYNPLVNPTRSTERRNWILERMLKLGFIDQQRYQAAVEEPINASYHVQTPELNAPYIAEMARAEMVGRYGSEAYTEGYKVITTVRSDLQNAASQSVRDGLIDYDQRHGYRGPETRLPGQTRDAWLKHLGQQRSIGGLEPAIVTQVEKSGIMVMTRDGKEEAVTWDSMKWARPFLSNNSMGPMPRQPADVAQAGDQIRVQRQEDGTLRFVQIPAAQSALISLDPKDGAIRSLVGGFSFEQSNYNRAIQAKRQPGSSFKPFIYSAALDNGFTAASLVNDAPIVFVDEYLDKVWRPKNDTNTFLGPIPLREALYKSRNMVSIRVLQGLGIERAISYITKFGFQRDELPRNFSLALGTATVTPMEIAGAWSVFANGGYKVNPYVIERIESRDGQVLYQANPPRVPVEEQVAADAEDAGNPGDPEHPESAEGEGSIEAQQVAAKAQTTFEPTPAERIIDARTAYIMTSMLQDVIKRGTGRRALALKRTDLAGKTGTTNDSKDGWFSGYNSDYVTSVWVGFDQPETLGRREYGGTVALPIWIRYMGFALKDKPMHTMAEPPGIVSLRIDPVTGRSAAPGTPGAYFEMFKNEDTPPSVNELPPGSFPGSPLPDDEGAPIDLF

SMILES: O=C(NNC(=O)[C@@H]1CC[C@@H]2CN1C(=O)N2OS(=O)(=O)O)[C@@H]1CCCNC1 [Compound of Formula (III), trans-(2S,5R)-sulfuric acid mono-[2-(N′—[(R)-piperidin-3-carbonyl]-hydrazino Carbonyl)-7-oxo-1,6-diaza-bicyclo[3.2.1]oct-6-yl] Ester]
- IC50 (Pseudomonas PBP 1A): > 10.2 µM
- IC50 (Pseudomonas PBP 5/6): > 10.2 µM
- MIC (K pneumoniae J 105): > 32 µg/mL
- MIC (K pneumoniae J 102): > 32 µg/mL
- MIC (K pneumoniae J 104): > 32 µg/mL
- MIC (K pneumoniae J 101): > 32 µg/mL
- MIC (P. mirabilis G 186): > 64 µg/mL
- MIC (K. pneumoniae B88 [1]): 8 µg/mL
- MSC (K. pneumoniae B88 [2]): 0.12 µg/mL
- Bacterial count ([3]; 0 hour): 6.14 Log10 CFU/ml
- Bacterial count ([3]; 2 hours): 7.3 Log10 CFU/ml
- Bacterial count ([3]; 4 hours): 7.8 Log10 CFU/ml
- Bacterial count ([3]; 6 hours): 7.9 Log10 CFU/ml
- Bacterial count ([3]; 8 hours): 8.5 Log10 CFU/ml
- Antibacterial activity (in words) ([3]; Klebsiella pneumoniae B 88, at MFC and MSC concentration, Table 13): did not exhibit antibacterial activity
- Bacterial count ([4]; 0 hour): 6.58 Log10 CFU/ml
- Bacterial count ([4]; 2 hours): 7.2 Log10 CFU/ml
- Bacterial count ([4]; 4 hours): 7.7 Log10 CFU/ml
- Bacterial count ([4]; 6 hours): 8.43 Log10 CFU/ml
- Bacterial count ([4]; 8 hours): 8.6 Log10 CFU/ml
- Antibacterial activity (in words) ([4]; P. mirabilis G 186, at MFC and MSC concentration, Table 14): did not exhibit antibacterial activity
- Bacterial count ([5]; 0 hour): 5.5 log (CFU/ml)
- Bacterial count ([5]; 2 hours): 5.4 log (CFU/ml)
- Bacterial count ([5]; 4 hours): 3.5 log (CFU/ml)
- Bacterial count ([5]; 6 hours): 3.6 log (CFU/ml)
